# Test results taken from ChEMBL document CHEMBL5365509, “Structure-Activity Relationship and Molecular Docking of Quinazolinones Inhibiting Expression of COX-2, IL-1β, iNOS, and TNF-α through NF-κB Pathways” (ACS Med Chem Lett, 2023).
# Activity calls are given as the source filed them. The rule behind the calls is not given here.
# Legend:
# in vitro = details: mouse
# Description: Cytotoxicity against mouse RAW264.7 cells assessed as cell viability at 6.25 uM by MTT assay relative to control
# RAW264.7 [1] = test: Anti-inflammatory activity in mouse RAW264.7 assessed as LPS-induced COX-2 mRNA expression at 62.5 uM incubated for 16 hrs by RT-PCR analysis relative to control; type: functional
# RAW264.7 [2] = test: Anti-inflammatory activity in mouse RAW264.7 assessed as LPS-induced IL-1beta mRNA expression at 62.5 uM incubated for 16 hrs by RT-PCR analysis relative to control; type: functional
# RAW264.7 [3] = test: Anti-inflammatory activity in mouse RAW264.7 assessed as decrease in LPS-induced IL-1beta mRNA expression at 62.5 uM incubated for 16 hrs by RT-PCR analysis; type: functional, cell-based
# RAW264.7 [4] = test: Anti-inflammatory activity in mouse RAW264.7 assessed as decrease in LPS-induced COX-2 mRNA expression at 62.5 uM incubated for 16 hrs by RT-PCR analysis; type: functional, cell-based
# RAW264.7 [5] = test: Anti-inflammatory activity in mouse RAW264.7 assessed as LPS-induced iNOS mRNA expression at 62.5 uM incubated for 16 hrs by RT-PCR analysis relative to control; type: functional
# RAW264.7 [6] = test: Anti-inflammatory activity in mouse RAW264.7 assessed as decrease in LPS-induced COX-2 mRNA expression at 62.5 uM incubated for 16 hrs by RT-PCR analysis relative to control; type: functional; set-up: scale not given: the % may be the effect or the level left
# RAW264.7 [7] = test: Anti-inflammatory activity in mouse RAW264.7 assessed as decrease in LPS-induced iNOS mRNA expression at 62.5 uM incubated for 16 hrs by RT-PCR analysis relative to control; type: functional; set-up: scale not given: the % may be the effect or the level left
# RAW264.7 [8] = test: Anti-inflammatory activity in mouse RAW264.7 assessed as LPS-induced TNF-alpha mRNA expression at 62.5 uM incubated for 16 hrs by RT-PCR analysis relative to control; type: functional
# RAW264.7 [9] = test: Anti-inflammatory activity in mouse RAW264.7 assessed as decrease in LPS-induced IL-1beta mRNA expression incubated for 16 hrs by RT-PCR analysis; type: functional, cell-based; details: dose 0.1-62.5 µM
# RAW264.7 [10] = test: Anti-inflammatory activity in mouse RAW264.7 assessed as decrease in LPS-induced COX-2 mRNA expression incubated for 16 hrs by RT-PCR analysis; type: functional, cell-based; details: dose 0.1-62.5 µM
# RAW264.7 [11] = test: Anti-inflammatory activity in mouse RAW264.7 assessed as decrease in LPS-induced TNF-alpha mRNA expression at 62.5 uM incubated for 16 hrs by RT-PCR analysis relative to control; type: functional; set-up: scale not given: the % may be the effect or the level left
# RAW264.7 [12] = test: Anti-inflammatory activity in mouse RAW264.7 assessed as decrease in LPS-induced IL-1beta mRNA expression at 62.5 uM incubated for 16 hrs by RT-PCR analysis relative to control; type: functional; set-up: scale not given: the % may be the effect or the level left
# RAW264.7 [13] = test: Cytotoxicity against mouse RAW264.7 cells assessed as cell viability at 6.25 uM by MTT assay; type: toxicity, cell-based; details: raw264.7, 6.25 µM
smiles,measurement,setting,value
CC(C)c1nc2ccccc2c(=O)[nH]1,viability at 6.25 µM,in vitro; RAW264.7 cells,> 80%
same,Activity,RAW264.7 [1],20.47%
same,Activity,RAW264.7 [2],14.02%
same,Activity,RAW264.7 [3],Active
O=c1[nH]cnc2ncccc12,Activity,RAW264.7 [4],inactive
same,viability at 6.25 µM,in vitro; RAW264.7 cells,> 80%
same,Activity,RAW264.7 [5],62.82%
same,Activity,RAW264.7 [3],inactive
Cn1cnc2ccccc2c1=O,viability at 6.25 µM,in vitro; RAW264.7 cells,> 80%
same,Activity,RAW264.7 [6],28.85%
same,Activity,RAW264.7 [7],<22%
O=c1c2ccccc2ncn1-c1ccccc1,viability at 6.25 µM,in vitro; RAW264.7 cells,> 80%
same,Activity,RAW264.7 [6],28.46%
same,Activity,RAW264.7 [7],<22%
Cc1nc2ccccc2c(=O)[nH]1,viability at 6.25 µM,in vitro; RAW264.7 cells,> 80%
same,Activity,RAW264.7 [1],60.96%
same,Activity,RAW264.7 [2],58.79%
O=c1[nH]c(-c2cccc(C(F)(F)F)c2)nc2ccccc12,Activity,RAW264.7 [4],inactive
same,viability at 6.25 µM,in vitro; RAW264.7 cells,> 80%
same,Activity,RAW264.7 [5],13.98%
same,Activity,RAW264.7 [2],<35%
COc1ccc(-c2nc3ccccc3c(=O)[nH]2)cc1,viability at 6.25 µM,in vitro; RAW264.7 cells,> 80%
CCCCCCc1nc2ccccc2c(=O)[nH]1,viability at 6.25 µM,in vitro; RAW264.7 cells,> 80%
same,Activity,RAW264.7 [2],3.1%
same,Activity,RAW264.7 [6],95%
CCCCCCCCc1nc2ccccc2c(=O)[nH]1,Activity,RAW264.7 [8],44%
same,viability at 6.25 µM,in vitro; RAW264.7 cells,> 80%
same,Activity,RAW264.7 [1],11.14%
same,Activity,RAW264.7 [2],6.92%
same,Activity,RAW264.7 [3],Active
same,Activity,RAW264.7 [9],Dose-Dependent Effect
same,Activity,RAW264.7 [10],Dose-Dependent Effect
CCC(C)c1nc2ccccc2c(=O)[nH]1 (configuration not stated),Activity,RAW264.7 [8],44%
same,viability at 6.25 µM,in vitro; RAW264.7 cells,> 80%
same,Activity,RAW264.7 [1],0.5%
same,Activity,RAW264.7 [2],4.02%
same,Activity,RAW264.7 [3],Active
Cc1cccc(-c2nc(O)c3ccccc3n2)c1,viability at 6.25 µM,in vitro; RAW264.7 cells,> 80%
same,Activity,RAW264.7 [1],3.79%
same,Activity,RAW264.7 [2],<35%
COc1ccc(-c2nc(O)c3ccccc3n2)cc1,Activity,RAW264.7 [4],inactive
same,Activity,RAW264.7 [2],<35%
O=c1[nH]cnc2ccccc12 [QUINAZOLINONE],viability at 6.25 µM,in vitro; raw264.7,> 80%
O=c1[nH]cnc2cc(F)ccc12,viability at 6.25 µM,in vitro; RAW264.7 cells,> 80%
same,Activity,RAW264.7 [11],<50%
same,Activity,RAW264.7 [12],10.85%
Oc1nc(C2CCCCC2)nc2ccccc12,Activity,RAW264.7 [8],44%
same,viability at 6.25 µM,in vitro; RAW264.7 cells,> 80%
same,Activity,RAW264.7 [1],>80%
same,Activity,RAW264.7 [9],Dose-Dependent Effect
same,Activity,RAW264.7 [10],Dose-Dependent Effect
same,Activity,RAW264.7 [12],75.72%
O=c1[nH]c(/C=C/c2ccccc2)nc2ccccc12,Activity,RAW264.7 [13],Toxic
Oc1ncnc2cc(Cl)ccc12,viability at 6.25 µM,in vitro; RAW264.7 cells,> 80%
same,Activity,RAW264.7 [11],<50%
same,Activity,RAW264.7 [12],10.85%
O=c1[nH]cnc2ccc(F)cc12,viability at 6.25 µM,in vitro; RAW264.7 cells,> 80%
same,Activity,RAW264.7 [11],<50%
same,Activity,RAW264.7 [12],10.85%
CC(c1ccccc1)n1cnc2ccccc2c1=O (configuration not stated),Activity,RAW264.7 [4],Active
same,viability at 6.25 µM,in vitro; RAW264.7 cells,> 80%
same,Activity,RAW264.7 [7],<22%
